Measured values taken from article PMC6028838, “A new terpene coumarin microbial transformed by Mucor polymorphosporus induces apoptosis of human gastric cancer cell line MGC-803” (Archives of Pharmacal Research, 2018).

Assays:
[1] = tested on: human gastric cancer cell line MGC-803; assay: MTT antiproliferation assay, MGC-803 cells; assay type: cell-based; conditions: 48 h incubation, mean ± SD of triplicate experiments
Method: (§1) The human gastric cancer cell line MGC-803 and human normal gastric epithelial cell line GES-1 were cultured in DMEM containing penicillin (100 U/mL), streptomycin (100 μg/mL), and 10% FBS at 37 °C with 5% CO2. Cells that used in experiments were passaged at least three times.
(§2) Cells were seeded in 96-well plates at a density of 5 × 10^4/well and cultured at 37 °C with 5% CO2 for 24 h. And then, compounds (1–5) in various concentrations were introduced with incubation for another 48 h. Finally, 10 μL MTT (5 mg/mL) was added to each well. After 4 h incubation, the medium was removed and 150 μL DMSO was added. Absorbance was read on a Microplate Reader at 570 nm (Bio Tek, Thenceforth, USA) (Li et al. [2014]). The MTT assay aims to evaluate the antiproliferative effects of the test compounds in MGC-803 cells and the cytotoxic effects in GES-1 cells.

[2] = tested on: human normal gastric epithelial cell line GES-1; assay: MTT cytotoxicity assay, GES-1 cells; assay type: cell-based; conditions: GES1, 48 h incubation, mean ± SD of triplicate experiments
Method: as §1, §2

[3] = Solubility in aqueous media; assay type: physicochemical; conditions: thermodynamic equilibrating conditions, compared with 2′-Z auraptene
[4] = tested on: Bax, Bcl-2 and cleaved caspase-3 in MGC-803 cells; assay: Western blot of apoptosis-related proteins; assay type: cell-based, human; conditions: MGC-803 cells, 1.0, 2.0, 4.0 μM, 24 h
Method: The detection of levels of apotosis-related proteins in MGC-803 cells was performed according to the reported western blot method (Zhang et al. [2015a]). Briefly, cells were treated with compound 2 (0, 1.0, 2.0, 4.0 μM) for 24 h and then harvested to detect the protein concentration using the BCA method. Total cellular protein was separated by an SDS/PAGE gel and transferred onto PVDF membranes using a semidry electroblotter. The membrane was blocked with non-fat milk solution (5%) for 1 h, and incubated subsequently with primary antibody at 4 °C overnight. Then TBST was used to wash the primary antibody and incubated with secondary antibody for 1 h at room temperature. Protein bands were visualized by enhanced chemiluminescence (ECL) and β-actin was used as a normalizing control.

[5] = tested on: MGC-803 cells; assay: Annexin V-FITC/PI apoptosis assay by flow cytometry; assay type: cell-based, human; conditions: MGC-803 cells, 1.0, 2.0, 4.0 μM, 24 h, compared with the control group
Method: The apoptosis effect of 2′-Z auraptene A (2) in MGC-803 cells was examined using the Annexin V-FITC/PI detection kit, according to the description of previously reported (Bakar et al. [2016]). Briefly, cells were seeded and treated with compound 2 (0, 1.0, 2.0, 4.0 μM) for 24 h. Cells were harvested and washed twice with cold PBS before incubating with annexin V and PI for 30 min in dark. And then the stained cells were detected and analyzed on FACS Calibur flow cytometry.

Question: With C/C(=C/C(O)C/C(C)=C\COc1ccc2ccc(=O)oc2c1)CO (stereo not drawn) [Compound 5, 7-(((2′Z,6′Z)-5′,9′-hydroxy-3′,7′-dimethylocta-2′,6′-dien-1′-yl)oxy)-2H-chromen-2-one] as the compound, how does the IC50 [1] read?
Answer: 10.8 ± 1.83 µM

Question: And the IC50 [2]?
Answer: 35.5 ± 2.21 µM

Question: Which results are given for C/C(=C/CC/C(C)=C\COc1ccc2ccc(=O)oc2c1)CO [Compound 3, 7-(((2′Z,6′Z)-9′-hydroxy-3′,7′-dimethylocta-2′,6′-dien-1′-yl)oxy)-2H-chromen-2-one]?
Answer: IC50 [1]: 4.75 ± 1.02 µM; IC50 [2]: 25.6 ± 2.12 µM

Question: What does the source list for C/C(=C/CC(O)/C(C)=C\COc1ccc2ccc(=O)oc2c1)CO (stereo not drawn) [Compound 4, 7-(((2′Z,6′Z)-4′,9′-hydroxy-3′,7′-dimethylocta-2′,6′-dien-1′-yl)oxy)-2H-chromen-2-one]?
Answer: IC50 [1]: 6.78 ± 2.06 µM; IC50 [2]: 33.8 ± 1.46 µM

Question: For C/C(=C/COc1ccc2ccc(=O)oc2c1)CCCO [Compound 2, 2′-Z auraptene A], which “limitation of solubility in aqueous media” value [3] is on record?
Answer: improved

Question: And the IC50 [1]?
Answer: 0.78 ± 0.13 µM

Question: What about the IC50 [2] of the same compound?
Answer: 46 ± 3.11 µM

Question: And the “level of Bax protein” value [4]?
Answer: increase

Question: What about the “level of Bcl-2 protein” value [4] of the same compound?
Answer: reduction

Question: What about the “level of cleaved caspase-3 protein” value [4] of the same compound?
Answer: increase

Question: What about the cellular apoptotic rates [5] of the same compound?
Answer: increased significantly in a dose-dependent manner

Question: What does the source list for CC(C)=CCC/C(C)=C\COc1ccc2ccc(=O)oc2c1 [Compound 1, (Z)-7-((3′,7′-dimethylocta-2′,6′-dien-1′-yl)oxy)-2H-chromen-2-one]?
Answer: IC50 [1]: 10.4 ± 0.86 µM; IC50 [2]: 57 ± 2.31 µM
